Data published in patent publication US10106504B2, “Pyridin-3-yl acetic acid derivatives as inhibitors of human immunodeficiency virus replication” (priority 2015, dated 2018).
Where two headings read alike, the source gives them in different places.

System: NL-RLuc virus
Experiment: Inhibition of HIV replication (NL-RLuc virus, luciferase readout in MT-2 cells)
Assay type: cell-based
Conditions: Human immunodeficiency virus 1, MT2, 120 h
Description: Inhibition of HIV Replication:
A recombinant NL-RLuc proviral clone was constructed in which a section of the nef gene from NL4-3 was replaced with the Renilla Luciferase gene. This virus is fully infectious and can undergo multiple cycles of replication in cell culture. In addition, the luciferous reporter provides a simple and easy method for quantitating the extent of virus growth and consequently, the antiviral activity of test compounds. The plasmid pNLRLuc contains the proviral NL-Rluc DNA cloned into pUC18 at the PvuII site. The NL-RLuc virus was prepared by transfection of 293T cells with the plasmid pNLRLuc. Transfections were performed using the LipofectAMINE PLUS kit from Invitrogen (Carlsbad, Calif.) according to the manufacturer and the virus generated was titered in MT-2 cells. For susceptibility analyses, the titrated virus was used to infect MT-2 cells in the presence of compound, and after 5 days of incubation, cells were processed and quantitated for virus growth by the amount of expressed luciferase. Assay media was RPMI 1640 supplemented with 10% heat inactivated fetal bovine serum (FBS), 100 units/ml penicillin G/100 units/ml streptomycin, 10 mM HEPES buffer pH 7.55 and 2 mM L-glutamine. The results from at least 2 experiments were used to calculate the EC50 values. Luciferase was quantitated using the Dual Luciferase kit from Promega (Madison, Wis.). Susceptibility of viruses to compounds was determined by incubation in the presence of serial dilutions of the compound. The 50% effective concentration (EC50) was calculated by using the exponential form of the median effect equation where (Fa)=1/[1+(ED50/drug conc.)^m] (Johnson V A, Byington R T. Infectivity Assay. In Techniques in HIV Research. ed. Aldovini A, Walker BD. 71-76. New York: Stockton Press. 1990). Activity equal to A refers to a compound having an EC50<100 nM, while B and C denote compounds having an EC50 between 100 nM and 1 uM (B) or >1 uM (C).

Row | Structure (SMILES) | EC50 (read-out: Activity) [µM] | EC50 (read-out: EC50 μM) [µM]
1 | Cc1nc(C)c([C@H](OC(C)(C)C)C(=O)O)c(-c2cc(F)c3c(c2)C=CCO3)c1-c1ccc(OCCc2ccc(F)cc2)cc1 [Example 47, (S)-2-(tert-Butoxy)-2-(4-(8-fluoro-2H-chromen-6-yl)-5-(4-(4-fluorophenethoxy)phenyl)-2,6-dimethylpyridin-3-yl)acetic Acid] | < 0.1 | 
2 | Cc1nc(C)c([C@H](OC(C)(C)C)C(=O)O)c(-c2cc(F)c3c(c2)CCCO3)c1-c1ccc(OCCc2ccc(F)cc2)cc1 [Example 48, (S)-2-(tert-Butoxy)-2-(4-(8-fluorochroman-6-yl)-5-(4-(4-fluorophenethoxy)phenyl)-2,6-dimethylpyridin-3-yl)acetic Acid] | < 0.1 | 
3 | Cc1cccc(F)c1CN1CCc2cc(-c3c(C)nc(C)c([C@H](OC(C)(C)C)C(=O)O)c3-c3cc(F)c4c(c3)CCCO4)ccc2C1 [Example 49, (S)-2-(tert-Butoxy)-2-(5-(2-(2-fluoro-6-methylbenzyl)-1,2,3,4-tetrahydroisoquinolin-6-yl)-4-(8-fluorochroman-6-yl)-2,6-dimethylpyridin-3-yl)acetic Acid] | < 0.1 | 
4 | Cc1cc(F)ccc1CN1CCc2cc(-c3c(C)nc(C)c([C@H](OC(C)(C)C)C(=O)O)c3-c3cc(F)c4c(c3)CCCO4)ccc2C1 [Example 50, (S)-2-(tert-Butoxy)-2-(5-(2-(4-fluoro-2-methylbenzyl)-1,2,3,4-tetrahydroisoquinolin-6-yl)-4-(8-fluorochroman-6-yl)-2,6-dimethylpyridin-3-yl)acetic Acid] | < 0.1 | 
5 | Cc1cccc(Cl)c1CN1CCc2cc(-c3c(C)nc(C)c([C@H](OC(C)(C)C)C(=O)O)c3-c3cc(F)c4c(c3)CCCO4)ccc2C1 [Example 51, (S)-2-(tert-Butoxy)-2-(5-(2-(2-chloro-6-methylbenzyl)-1,2,3,4-tetrahydroisoquinolin-6-yl)-4-(8-fluorochroman-6-yl)-2,6-dimethylpyridin-3-yl)acetic Acid] | < 0.1 | 
6 | Cc1cc(N2CCc3cc(-c4c(C)nc(C)c([C@H](OC(C)(C)C)C(=O)O)c4-c4cc(F)c5c(c4)CCCO5)ccc3C2)ncn1 [Example 52, (S)-2-(tert-Butoxy)-2-(4-(8-fluorochroman-6-yl)-2,6-dimethyl-5-(2-(6-methylpyrimidin-4-yl)-1,2,3,4-tetrahydroisoquinolin-6-yl)pyridin-3-yl)acetic Acid] | < 0.1 | 
7 | Cc1nc(C)c([C@H](OC(C)(C)C)C(=O)O)c(-c2cc(F)c3c(c2)CCCO3)c1-c1ccc2c(c1)CCN(c1ncnc3c1cnn3C)C2 [Example 53, (S)-2-(tert-Butoxy)-2-(4-(8-fluorochroman-6-yl)-2,6-dimethyl-5-(2-(1-methyl-1H-pyrazolo[3,4-d]pyrimidin-4-yl)-1,2,3,4-tetrahydroisoquinolin-6-yl)pyridin-3-yl)acetic Acid] | < 0.1 | 
8 | Cc1nc(C)c([C@H](OC(C)(C)C)C(=O)O)c(-c2ccc3c(c2)CCCO3)c1-c1ccc2c(c1)CCN(c1ncnc3c1cnn3C)C2 [Example 54, (S)-2-(tert-Butoxy)-2-(4-(chroman-6-yl)-2,6-dimethyl-5-(2-(1-methyl-1H-pyrazolo[3,4-d]pyrimidin-4-yl)-1,2,3,4-tetrahydroisoquinolin-6-yl)pyridin-3-yl)acetic Acid] | < 0.1 | 0.008
9 | Cc1cc(N2CCc3cc(-c4c(C)nc(C)c([C@H](OC(C)(C)C)C(=O)O)c4-c4ccc5c(c4)CCCO5)ccc3C2)ncn1 [Example 55, (S)-2-(tert-Butoxy)-2-(4-(chroman-6-yl)-2,6-dimethyl-5-(2-(6-methylpyrimidin-4-yl)-1,2,3,4-tetrahydroisoquinolin-6-yl)pyridin-3-yl)acetic Acid] | < 0.1 | 
10 | Cc1cc(F)ccc1CN1CCc2cc(-c3c(C)nc(C)c([C@H](OC(C)(C)C)C(=O)O)c3-c3ccc4c(c3)CCCO4)ccc2C1 [Example 56, (S)-2-(tert-Butoxy)-2-(4-(chroman-6-yl)-5-(2-(4-fluoro-2-methylbenzyl)-1,2,3,4-tetrahydroisoquinolin-6-yl)-2,6-dimethylpyridin-3-yl)acetic Acid] | < 0.1 | 
11 | COc1nccc(N2CCc3cc(-c4c(C)nc(C)c([C@H](OC(C)(C)C)C(=O)O)c4-c4ccc5c(c4)CCCO5)ccc3C2)n1 [Example 57, (S)-2-(tert-Butoxy)-2-(4-(chroman-6-yl)-5-(2-(2-methoxypyrimidin-4-yl)-1,2,3,4-tetrahydroisoquinolin-6-yl)-2,6-dimethylpyridin-3-yl)acetic Acid] | < 0.1 | 
12 | Cc1cc(N2CCc3cc(-c4c(C)nc(C)c([C@H](OC(C)(C)C)C(=O)O)c4-c4ccc5c(c4)CCCO5)ccc3C2)nc(C)n1 [Example 58, (S)-2-(tert-Butoxy)-2-(4-(chroman-6-yl)-5-(2-(2,6-dimethylpyrimidin-4-yl)-1,2,3,4-tetrahydroisoquinolin-6-yl)-2,6-dimethylpyridin-3-yl)acetic Acid] | < 0.1 | 
13 | Cc1nc(N)c(-c2ccc(OCCc3ccc(F)cc3)cc2)c(-c2ccc3c(c2)CCCO3)c1[C@H](OC(C)(C)C)C(=O)O [Example 59, (S)-2-(6-Amino-4-(chroman-6-yl)-5-(4-(4-fluorophenethoxy)phenyl)-2-methylpyridin-3-yl)-2-(tert-butoxy)acetic Acid] | < 0.1 | 
14 | Cc1cc(F)ccc1CN1CCc2cc(-c3c(N)nc(C)c([C@H](OC(C)(C)C)C(=O)O)c3-c3ccc4c(c3)CCCO4)ccc2C1 [Example 60, (S)-2-(6-Amino-4-(chroman-6-yl)-5-(2-(4-fluoro-2-methylbenzyl)-1,2,3,4-tetrahydroisoquinolin-6-yl)-2-methylpyridin-3-yl)-2-(tert-butoxy)acetic Acid] | < 0.1 | 0.003
15 | Cc1nc(N)c(-c2ccc3c(c2)CCN(Cc2cccc(F)c2C)C3)c(-c2ccc3c(c2)CCCO3)c1[C@H](OC(C)(C)C)C(=O)O [Example 61, (S)-2-(6-Amino-4-(chroman-6-yl)-5-(2-(3-fluoro-2-methylbenzyl)-1,2,3,4-tetrahydroisoquinolin-6-yl)-2-methylpyridin-3-yl)-2-(tert-butoxy)acetic acid] | < 0.1 | 
16 | Cc1cccc(F)c1CN1CCc2cc(-c3c(N)nc(C)c([C@H](OC(C)(C)C)C(=O)O)c3-c3ccc4c(c3)CCCO4)ccc2C1 [Example 62, (S)-2-(6-Amino-4-(chroman-6-yl)-5-(2-(2-fluoro-6-methylbenzyl)-1,2,3,4-tetrahydroisoquinolin-6-yl)-2-methylpyridin-3-yl)-2-(tert-butoxy)acetic Acid] | < 0.1 | 
17 | Cc1cccc(Cl)c1CN1CCc2cc(-c3c(N)nc(C)c([C@H](OC(C)(C)C)C(=O)O)c3-c3ccc4c(c3)CCCO4)ccc2C1 [Example 63, (S)-2-(6-Amino-5-(2-(2-chloro-6-methylbenzyl)-1,2,3,4-tetrahydroisoquinolin-6-yl)-4-(chroman-6-yl)-2-methylpyridin-3-yl)-2-(tert-butoxy)acetic Acid] | < 0.1 | 
18 | COc1nccc(N2CCc3cc(-c4c(N)nc(C)c([C@H](OC(C)(C)C)C(=O)O)c4-c4ccc5c(c4)CCCO5)ccc3C2)n1 [Example 64, (S)-2-(6-Amino-4-(chroman-6-yl)-5-(2-(2-methoxypyrimidin-4-yl)-1,2,3,4-tetrahydroisoquinolin-6-yl)-2-methylpyridin-3-yl)-2-(tert-butoxy)acetic Acid] | < 0.1 | 
19 | Cc1cc(N2CCc3cc(-c4c(N)nc(C)c([C@H](OC(C)(C)C)C(=O)O)c4-c4ccc5c(c4)CCCO5)ccc3C2)nc(C)n1 [Example 65, (S)-2-(6-Amino-4-(chroman-6-yl)-5-(2-(2,6-dimethylpyrimidin-4-yl)-1,2,3,4-tetrahydroisoquinolin-6-yl)-2-methylpyridin-3-yl)-2-(tert-butoxy)acetic Acid] | < 0.1 | 
20 | Cc1nc(CCCC2CCOCC2)c(-c2ccc(OCCc3ccc(F)cc3)cc2)c(-c2ccc3c(c2)CCCO3)c1[C@H](OC(C)(C)C)C(=O)O [Example 66, (S)-2-(tert-Butoxy)-2-(4-(chroman-6-yl)-5-(4-(4-fluorophenethoxy)phenyl)-2-methyl-6-(3-(tetrahydro-2H-pyran-4-yl)propyl)pyridin-3-yl)acetic Acid] | < 0.1 | 0.006
21 | Cc1cc(N2CCc3cc(-c4c(CCCC5CCOCC5)nc(C)c([C@H](OC(C)(C)C)C(=O)O)c4-c4ccc5c(c4)CCCO5)ccc3C2)ncn1 [Example 67, (S)-2-(tert-Butoxy)-2-(4-(chroman-6-yl)-2-methyl-5-(2-(6-methylpyrimidin-4-yl)-1,2,3,4-tetrahydroisoquinolin-6-yl)-6-(3-(tetrahydro-2H-pyran-4-yl)propyl)pyridin-3-yl)acetic Acid] | < 0.1 | 
22 | Cc1cccc(F)c1CN1CCc2cc(-c3c(CCCC4CCOCC4)nc(C)c([C@H](OC(C)(C)C)C(=O)O)c3-c3ccc4c(c3)CCCO4)ccc2C1 [Example 68, (S)-2-(tert-Butoxy)-2-(4-(chroman-6-yl)-5-(2-(2-fluoro-6-methylbenzyl)-1,2,3,4-tetrahydroisoquinolin-6-yl)-2-methyl-6-(3-(tetrahydro-2H-pyran-4-yl)propyl)pyridin-3-yl)acetic Acid] | < 0.1 | 
